Consider 1 molecule from US6689936B1, “Method for evaluating a compound for its effect on skin” (The General Hospital Corp., priority 1997, dated 2004).

The test system of test [1] is human VEGF promoter driven GFP reporter. Put plainly: Induction of epidermal GFP by topical TPA in VEGF-GFP transgenic mouse skin (fluorescence microscopy of skin biopsy sections). In kind it is in vivo. Conditions: single dose of 5 μg TPA in acetone, topical on back skin, biopsy after 12 hours; acetone alone showed only basal levels. On the procedure:
Tissue preparation for GFP detection and epimicroscopic observation solutions washed out or diffused GFP-derived fluorescence from the site of GFP expression. Ultimately, a freshly dissected, unfixed tissue block, was directly cut into 12 μm thick frozen sections using a cryostat. Epifluorescent microscopic observation was performed immediately after sectioning, without mounting medium or extended slide storage, using FITC/TRITC double excitation and an emission filter Chroma, *VT) to distinguish the GFP-derived fluorescent signal from tissue autofluorescence.
For induction of VEGF mRNA by TPA, a single dose of 5 μg TPA in acetone was topically applied to back skin of transgenic mice and skin biopsy samples were collected after 12 hours.
Induction of epidermal GFP by phorbolester application was also examined. […] This signal seemed to localize to the basoplateral surface of the epithelium rather than in either the keratinocyt cytosol or nucleus.

For a further test, the system named is VEGF. Conditions: topical application of phorbolesters; cited from earlier work.
The subject of test [2] is human VEGF promoter driven GFP reporter. Put plainly: Direct confocal detection of GFP induction in intact skin of living hairless VEGF-GFP transgenic mice. Type of test: in vivo. The following applies: TPA applied to back skin of anaesthetized hairless VEGF-GFP mouse, after 12hrs, compared with acetone on the same individual. On the procedure:
To examine whole intact skin on living transgenic mouse with confocal microscope, hairless VEGF-GFP transgenic mice were anaesthetized with avertin by intraperitoneal injection. They were placed directly on the petri dish with dorsal position. TPA or acetone treatment was performed on the back skin same as described above marking treated area with an ink to ease the orientation of the skin. Sections or intact skin of the mice were analyzed using Leica DM IRBE inverted microscope and Leica TCS NT4D confocal microscope system with band pass filter 530/30 nm, detecting emission at wavelengths between 515-545 nm.
To test whether the induction of GFP is directly detected in the skin of a living VEGF-GFP transgenic mouse, acetone or TPA applied skin of the transgenic hairless mouse (same individual) was directly examined by confocal imaging under anaesthetized condition. […] X-Z confocal imaging confirmed that this signal was within the basal layer of the epidermis.

`CCCCCCCCCCCCCC(=O)O[C@@H]1[C@@H](C)[C@@]2(O)[C@@H](C=C(CO)C[C@]3(O)C(=O)C(C)=C[C@@H]23)[C@H]2C(C)(C)[C@]12OC(C)=O` [TPA]: the “GFP fluorescent signal in epidermis of transgenic skin” value in test [1] is “Accumulation of fluorescent signal was observed”. Further, the “expression of VEGF in epidermal keratinocytes” value in the test on VEGF is on record as “up-regulated”. For the same molecule, the “GFP fluorescence positive area in living epidermis (confocal imaging)” value in test [2] is given as “increase of fluorescence positive area”.
